Test results reported in ChEMBL document CHEMBL4118101 (Bioorg Med Chem, 2018).
In brackets after ≈: the same amount, converted by molar mass. Activity calls are given as the source filed them. No cut-off for these calls is given here.

Columns and labels:
Candida parapsilosis [1] = test: Antifungal activity against Candida parapsilosis ATCC 22019 measured after 48 hrs by CLSI M27-A3 protocol based method; format: functional
Nakaseomyces glabratus [2] = test: Antifungal activity against Candida glabrata isolate CG1 measured after 48 hrs by CLSI M27-A3 protocol based method; format: functional
Candida parapsilosis [3] = test: Fungistatic activity against Candida parapsilosis ATCC 22019 up to 4 times MIC incubated for 24 hrs by time kill assay; format: functional, organism-based
Erythrocyte = test: (§1) Hemolytic activity in mouse RBC at 62.5 ug/ml after 1 hr relative to control; format: ADME, cell-based; conditions: erythrocyte, 1 h
Cryptococcus neoformans [4] = test: Antifungal activity against Cryptococcus neoformans isolate CN2 measured after 48 hrs by CLSI M27-A3 protocol based method; format: functional
Candida albicans [5] = test: Antifungal activity against fluconazole/ITC-resistant Candida albicans ATCC 90819 measured after 48 hrs by CLSI M27-A3 protocol based method; format: functional
Candida parapsilosis [6] = test: Antifungal activity against Candida parapsilosis isolate CP3 measured after 48 hrs by CLSI M27-A3 protocol based method; format: functional
Aspergillus nidulans [7] = test: Antifungal activity against Aspergillus nidulans ATCC 38163 measured after 48 hrs in presence of 10% FBS by CLSI M38-A2 protocol based method; format: functional; conditions: ATCC 38163, 48 h
[8] = Hemolytic activity in mouse RBC at 3.9 ug/ml after 1 hr relative to control; format: ADME, cell-based, Erythrocyte; conditions: mouse red blood cells (erythrocytes), read-out: Activity
[9] = Hemolytic activity in mouse RBC at 7.8 ug/ml after 1 hr relative to control; format: ADME, cell-based, Erythrocyte; conditions: mouse red blood cells (erythrocytes), read-out: Activity
[10] = Hemolytic activity in mouse RBC at 0.48 ug/ml after 1 hr relative to control; format: ADME, cell-based, Erythrocyte; conditions: mouse red blood cells (erythrocytes), read-out: Activity
Candida albicans [11] = test: Antifungal activity against fluconazole/ITC-resistant Candida albicans ATCC MYA-1237 measured after 48 hrs by CLSI M27-A3 protocol based method; format: functional
[12] = Hemolytic activity in mouse RBC at 1.95 ug/ml after 1 hr relative to control; format: ADME, cell-based, Erythrocyte; conditions: mouse red blood cells (erythrocytes), at 1.95 µg/mL, read-out: Activity
Nakaseomyces glabratus [13] = test: Antifungal activity against Candida glabrata isolate CG3 measured after 48 hrs by CLSI M27-A3 protocol based method; format: functional
Aspergillus terreus = test: Antifungal activity against Aspergillus terreus ATCC MYA-3633 measured after 48 hrs by CLSI M38-A2 protocol based method; format: functional; conditions: ATCC MYA-3633, 48 h
Cryptococcus neoformans [14] = test: Antifungal activity against Cryptococcus neoformans isolate CN3 measured after 48 hrs by CLSI M27-A3 protocol based method; format: functional
[15] = Hemolytic activity in mouse RBC at […] ug/ml after 1 hr relative to control; format: ADME, cell-based, Erythrocyte; conditions: mouse red blood cells (erythrocytes), read-out: Activity
Candida albicans [16] = test: Inhibition of Candida albicans ATCC 10231 ERG11 assessed as lanosterol composition of total sterols at 0.12 ug/ml incubated for 10 mins followed by saponification for 2 hrs by GC-MS method relative to control; parameters: scale not given: the % may be the effect or the level left
Candida albicans [17] = test: Antifungal activity against Candida albicans ATCC 10231 measured after 48 hrs in presence of 10% FBS by CLSI M27-A3 protocol based method; format: functional
Candida albicans [18] = test: Fungistatic activity against Candida albicans ATCC 10231 at 4 times MIC incubated for 24 hrs by time kill assay; format: functional, organism-based
Candida albicans [19] = test: Antifungal activity against fluconazole/ITC-susceptible Candida albicans ATCC MYA-2310 measured after 48 hrs by CLSI M27-A3 protocol based method; format: functional
Candida albicans [20] = test: Inhibition of Candida albicans ATCC 10231 ERG11 assessed as 14alphamethyl ergosta-8,24(28)-diene-3beta,6alpha-diol composition of total sterols at 0.12 ug/ml incubated for 10 mins followed by saponification for 2 hrs by GC-MS method relative to control; parameters: scale not given: the % may be the effect or the level left
Candida parapsilosis [21] = test: Antifungal activity against Candida parapsilosis ATCC 22019 measured after 48 hrs in presence of 10% FBS by CLSI M27-A3 protocol based method; format: functional
Candida albicans [22] = test: Inhibition of Candida albicans ATCC 10231 ERG11 assessed as ergosterol composition of total sterols at 0.12 ug/ml incubated for 10 mins followed by saponification for 2 hrs by GC-MS method (reference value: 100%); parameters: scale not given: the % may be the effect or the level left
Candida albicans [23] = test: Antifungal activity against Candida albicans ATCC 64124 measured after 48 hrs by CLSI M27-A3 protocol based method; format: functional
Candida parapsilosis [24] = test: Antifungal activity against Candida parapsilosis isolate CP1 measured after 48 hrs by CLSI M27-A3 protocol based method; format: functional
Candida parapsilosis [25] = test: Antifungal activity against Candida parapsilosis isolate CP2 measured after 48 hrs by CLSI M27-A3 protocol based method; format: functional
Nakaseomyces glabratus [26] = test: Antifungal activity against Candida glabrata ATCC 2001 measured after 48 hrs by CLSI M27-A3 protocol based method; format: functional, CBS 138
Aspergillus nidulans [27] = test: Antifungal activity against Aspergillus nidulans ATCC 38163 measured after 48 hrs by CLSI M38-A2 protocol based method; format: functional; conditions: ATCC 38163, 48 h
Pichia kudriavzevii = test: Antifungal activity against Candida krusei ATCC 6258 measured after 48 hrs by CLSI M27-A3 protocol based method; format: functional
Candida albicans [28] = test: Inhibition of Candida albicans ATCC 10231 ERG11 assessed as eburicol composition of total sterols at 0.12 ug/ml incubated for 10 mins followed by saponification for 2 hrs by GC-MS method relative to control; parameters: scale not given: the % may be the effect or the level left
Candida albicans [29] = test: Induction of membrane permeabilization in Candida albicans ATCC 10231 assessed as membrane disruption at 4 times MIC after 1 hr by propidium iodide staining based fluorescence microscopy; format: functional, organism-based
Nakaseomyces glabratus [30] = test: Antifungal activity against Candida glabrata isolate CG2 measured after 48 hrs by CLSI M27-A3 protocol based method; format: functional
Candida albicans [31] = test: Antifungal activity against fluconazole/ITC-resistant Candida albicans ATCC MYA-1003 measured after 48 hrs by CLSI M27-A3 protocol based method; format: functional
Candida albicans [32] = test: Antifungal activity against fluconazole/ITC-susceptible Candida albicans ATCC MYA-2876 measured after 48 hrs by CLSI M27-A3 protocol based method; format: functional
[33] = as §1; format: ADME, cell-based, Erythrocyte; conditions: mouse red blood cells (erythrocytes), read-out: Activity
Candida albicans [34] = conditions: ATCC 10231, 0.975 ug/ml
Candida albicans [35] = conditions: ATCC 10231, 0.975 ug/ml; remark: listed apart in the source
Candida albicans [36] = conditions: ATCC 10231, 0.975 ug/ml; remark: listed apart in the source
BEAS-2B = test: Cytotoxicity against human BEAS2B cells up to 7.8 ug/ml after 24 hrs by resazurin based assay; format: cell-based
[37] = Hemolytic activity in mouse RBC at 31.3 ug/ml after 1 hr relative to control; format: ADME, cell-based, Erythrocyte; conditions: mouse red blood cells (erythrocytes), at 31.3 µg/mL, read-out: Activity
Candida albicans [38] = test: Antifungal activity against Candida albicans ATCC 10231 measured after 48 hrs by CLSI M27-A3 protocol based method; format: functional; conditions: ATCC 10231, 48 h
A549 = test: Cytotoxicity against human A549 cells up to 7.8 ug/ml after 24 hrs by resazurin based assay; format: cell-based; conditions: a549, 24 h
Cryptococcus neoformans [39] = test: Antifungal activity against Cryptococcus neoformans isolate CN1 measured after 48 hrs by CLSI M27-A3 protocol based method; format: functional; conditions: isolate CN1, 48 h
[40] = Cytotoxicity against HEK293 cells assessed as cell survival at 3.9 ug/ml after 24 hrs by resazurin based assay relative to control; conditions: human, read-out: Survival
Aspergillus flavus = test: Antifungal activity against Aspergillus flavus ATCC MYA-3631 measured after 48 hrs by CLSI M38-A2 protocol based method; format: functional; conditions: ATCC MYA-3631, 48 h
Candida albicans [41] = conditions: ATCC 10231, 0.975 ug/ml; remark: listed apart in the source
[42] = Lodderomyces parapsilosis, ATCC 22019, 48 h
[43] = Nakaseomyces glabratus, 48 h, read-out: MIC

C[C@@H](c1ncncc1F)[C@](O)(Cn1cncn1)c1ccc(F)cc1F [VORICONAZOLE]
MIC=<50 (Candida parapsilosis [1]): <0.06 µM
MIC (Nakaseomyces glabratus [2]): 2.76 µM (≈ 0.964 µg/mL)
Activity (Candida parapsilosis [3]): Active
Activity (Erythrocyte): 100%
MIC (Cryptococcus neoformans [4]): 2.76 µM (≈ 0.964 µg/mL)
MIC (Candida albicans [5]): 5.6 µM (≈ 1.96 µg/mL)
MIC=<50 (Candida parapsilosis [6]): <0.06 µM
MIC (Aspergillus nidulans [7]): 0.12 mg/L
hemolysis at 1 h, 3.9 ug/ml [8]: 7%
hemolysis at 1 h, 7.8 ug/ml [9]: 11%
hemolysis at 1 h, 0.48 ug/ml [10]: 9%
MIC (Candida albicans [11]): 22.3 µM (≈ 7.79 µg/mL)
hemolysis at 1 h, 1.95 ug/ml [12]: 6%
MIC (Nakaseomyces glabratus [13]): >89.9 µM
MIC (Aspergillus terreus): 0.34 µM (≈ 0.119 µg/mL)
MIC (Cryptococcus neoformans [14]): 0.35 µM (≈ 0.122 µg/mL)
hemolysis at 1 h, 0.975 ug/ml [15]: 10%
hemolysis at 1 h, 15.6 ug/ml [15]: 3%
Activity (Candida albicans [16]): 15.2%
MIC=<50 (Candida albicans [17]): 0.48 mg/L
Activity (Candida albicans [18]): Active
MIC (Candida albicans [19]): 2.8 µM (≈ 0.978 µg/mL)
Activity (Candida albicans [20]): 9.86%
MIC=<50 (Candida parapsilosis [21]): 0.015 mg/L
Activity (Candida albicans [22]): 50.8%
MIC (Candida albicans [23]): 11.2 µM (≈ 3.91 µg/mL)
MIC=<50 (Candida parapsilosis [24]): <0.06 µM
MIC=<50 (Candida parapsilosis [25]): <0.06 µM
MIC (Nakaseomyces glabratus [26]): 0.17 to 0.69 µM
MIC (Aspergillus nidulans [27]): 0.34 µM (≈ 0.119 µg/mL)
MIC=<50 (Pichia kudriavzevii): 0.34 µM (≈ 0.119 µg/mL)
Activity (Candida albicans [28]): 1.73%
Activity (Candida albicans [29]): inactive
MIC (Nakaseomyces glabratus [30]): 11.2 µM (≈ 3.91 µg/mL)
MIC (Candida albicans [31]): 5.6 µM (≈ 1.96 µg/mL)
MIC=<50 (Candida albicans [32]): 5.6 µM (≈ 1.96 µg/mL)

CCCCCCCCCCCCCCNCC(O)(Cn1cncn1)c1ccc(F)cc1F (configuration not stated)
MIC (Candida parapsilosis [1]; [42]): 1.1 µM (≈ 0.496 µg/mL)
MIC (Nakaseomyces glabratus [2]; [43]): 4.3 µM (≈ 1.94 µg/mL)
hemolysis at 1 h, 62.5 ug/ml [33]: 77%
MIC (Cryptococcus neoformans [4]; Cryptococcus neoformans, isolate CN2, 48 h, read-out: MIC): 0.53 µM (≈ 0.239 µg/mL)
MIC (Candida albicans [5]; Candida albicans, ATCC 90819, 48 h, read-out: MIC): 17.3 µM (≈ 7.8 µg/mL)
MIC (Candida parapsilosis [6]; Lodderomyces parapsilosis, isolate CP3, 48 h): 1.1 µM (≈ 0.496 µg/mL)
MIC (Aspergillus nidulans [7]): 31.2 mg/L
hemolysis at 1 h, 3.9 ug/ml [8]: 10%
hemolysis at 1 h, 7.8 ug/ml [9]: 17%
Activity (Candida albicans [34]): 36.4%
hemolysis at 1 h, 0.48 ug/ml [10]: 2%
MIC (Candida albicans [11]; Candida albicans, ATCC MYA-1237, 48 h, read-out: MIC): > 69.5 µM
Activity (Candida albicans [35]): 1.16%
Activity (Candida albicans [36]): 15.6%
hemolysis at 1 h, 1.95 ug/ml [12]: 3%
Activity (BEAS-2B): Non-Toxic
hemolysis at 1 h, 31.3 ug/ml [37]: < 50%
MIC (Nakaseomyces glabratus [13]; [43]): 8.7 µM (≈ 3.92 µg/mL)
MIC (Candida albicans [38]): 4.3 µM (≈ 1.94 µg/mL)
MIC (Aspergillus terreus): 17.3 µM (≈ 7.8 µg/mL)
MIC (Cryptococcus neoformans [14]; Cryptococcus neoformans, isolate CN3, 48 h, read-out: MIC): 1.1 µM (≈ 0.496 µg/mL)
hemolysis at 1 h, 0.975 ug/ml [15]: 6%
hemolysis at 1 h, 15.6 ug/ml [15]: 29%
MIC (Candida albicans [17]; Candida albicans, ATCC 10231, 48 h): 7.8 mg/L
Activity (A549): Non-Toxic
MIC (Candida albicans [19]; Candida albicans, ATCC MYA-2310, 48 h, read-out: MIC): 69.5 µM (≈ 31.3 µg/mL)
MIC (Cryptococcus neoformans [39]): 0.27 µM (≈ 0.122 µg/mL)
MIC (Candida parapsilosis [21]; [42]): 0.975 mg/L
MIC (Candida albicans [23]; Candida albicans, ATCC 64124, 48 h, read-out: MIC): > 69.5 µM
MIC (Candida parapsilosis [24]; Lodderomyces parapsilosis, isolate CP1, 48 h): 1.1 µM (≈ 0.496 µg/mL)
MIC (Candida parapsilosis [25]; Lodderomyces parapsilosis, isolate CP2, 48 h): 2.2 µM (≈ 0.991 µg/mL)
viability at 24 h, 3.9 ug/ml [40]: > 50%
MIC (Aspergillus flavus): > 69.5 µM
MIC (Nakaseomyces glabratus [26]; Nakaseomyces glabratus, CBS 138, 48 h, read-out: MIC): 2.2 to 4.3 µM (≈ 0.991 to 1.94 µg/mL)
MIC (Aspergillus nidulans [27]): 8.7 µM (≈ 3.92 µg/mL)
MIC (Pichia kudriavzevii; Pichia kudriavzevii, ATCC 6258, 48 h): 8.7 µM (≈ 3.92 µg/mL)
Activity (Candida albicans [29]): inactive
MIC (Nakaseomyces glabratus [30]; Nakaseomyces glabratus, isolate CG2, 48 h, read-out: MIC): 4.3 µM (≈ 1.94 µg/mL)
MIC (Candida albicans [31]; Candida albicans, ATCC MYA-1003, 48 h, read-out: MIC): 69.5 µM (≈ 31.3 µg/mL)
MIC (Candida albicans [32]; Candida albicans, ATCC MYA-2876, 48 h): > 69.5 µM
Activity (Candida albicans [41]): 8.33%
